Data from patent US7803930B2, “Antisense modulation of apolipoprotein B-expression” (Isis Pharmaceuticals, Inc., priority 2002, dated 2010).
In the oligonucleotide strings, read from the 5' end, every base follows the letter of its sugar. An asterisk marks phosphorothioate; unmarked linkages are phosphodiester. Other units and linkages are bracketed, terminal groups are in braces. A string of capitals states the bases alone. e = 2'-O-(2-methoxyethyl) (MOE); [5mC] = 5-methylcytosine; d = 2'-deoxy (DNA)

How the values were obtained:
Type in all cases: cell-based
[1] = test system: human apolipoprotein(a) mRNA; assay: Apolipoprotein(a) mRNA expression in primary human hepatocytes, real-time PCR; settings: primary human hepatocytes, 24 hours
Method: Primary human hepatocytes (InVitro Technologies, Baltimore, Md.), cultured and transfected as described herein, were treated with 5, 10, 50 or 150 nM of ISIS 271009 (SEQ ID NO: 319), 281625 (SEQ ID NO: 224), 301012 (SEQ ID NO: 247) or 301027 (SEQ ID NO: 262). Cells were also treated with 50 or 150 nM of the control oligonucleotides ISIS 113529 (SEQ ID NO: 859) or ISIS 13650 (SEQ ID NO: 806). Untreated cells served as a control. Following 24 hours of oligonucleotide treatment, apolipoprotein(a) mRNA expression was measured by quantitative real-time PCR as described in other examples herein.
Probes and primers to human apolipoprotein(a) were designed to hybridize to a human apolipoprotein(a) sequence, using published sequence information (GenBank accession number NM_005577.1, incorporated herein as SEQ ID NO: 860). For human apolipoprotein(a) the PCR primers were: […]
forward primer: […] (SEQ ID NO: 861)
reverse primer: TGCGTCTGAGCATTGCGT (SEQ ID NO: 862) and the PCR probe was: FAM-[…]-TAMRA (SEQ ID NO: 863) where FAM is the fluorescent dye and TAMRA is the quencher dye.
Data are the average of three experiments and are expressed as percent inhibition relative to untreated controls.

[2] = test system: lipoprotein(a); assay: Lipoprotein(a) particle secretion from primary human hepatocytes, ELISA; settings: 150 nM, 24 hours
Method: Primary human hepatocytes (InVitro Technologies, Baltimore, Md.), cultured and transfected as described herein, were treated for 24 hours with 50 or 150 nM of ISIS 271009 (SEQ ID NO: 319), 281625 (SEQ ID NO: 224), 301012 (SEQ ID NO: 247) or 301027 (SEQ ID NO: 262). Cells were also treated with 150 nM of the control oligonucleotides ISIS 113529 (SEQ ID NO: 859) or ISIS 13650 (SEQ ID NO: 806). Untreated cells served as a control. Following 24 hours of oligonucleotide treatment, the amount of lipoprotein(a) in the culture medium collected from the treated cells was measured using a commercially available ELISA kit (ALerCHEK Inc., Portland, Me.). The results are the average of three experiments and are expressed as percent change in lipoprotein(a) secretion relative to untreated controls.

[3] = test system: Cynomolgous monkey apolipoprotein B mRNA; assay: Apolipoprotein B mRNA in primary Cynomolgous monkey hepatocytes, real-time PCR; settings: primary Cynomolgous monkey hepatocytes, 24 hours (Table 46)
Method: Antisense inhibition by ISIS 301012 was compared to that of ISIS 326358, which is a perfect match to the Cynomolgous monkey apolipoprotein B sequence to which ISIS 301012 hybridizes. The compounds were analyzed for their effect on Cynomolgous monkey apolipoprotein B mRNA levels in primary Cynomolgous monkey hepatocytes purchased from In Vitro Technologies ([…].). Pre-plated primary Cynonomolgous monkey hepatocytes were purchased from InVitro Technologies (Baltimore, Md.). Cells were cultured in high-glucose DMEM (Invitrogen Corporation, Carlsbad, Calif.) supplemented with 10% fetal bovine serum (Invitrogen Corporation, Carlsbad, Calif.), 100 units/mL and 100 μg/mL streptomycin (Invitrogen Corporation, Carlsbad, Calif.).
Primary Cynomolgous monkey hepatocytes were treated with 10, 50, 150 or 300 nM of antisense oligonucleotides for 48 hours. ISIS 113529 (SEQ ID NO: 859) was used as a control oligonucleotide. Untreated cells also served as a control. Cynomolgous monkey apolipoprotein B mRNA levels were quantitated by real-time PCR using the human apolipoprotein B and GAPDH primers and probes described by other examples herein. The results, shown in Table 44, are the average of 6 experiments and are expressed as percent inhibition of apolipoprotein B mRNA normalized to untreated control cells.
In a further embodiment of the invention, antisense inhibition by ISIS 281625 was compared to that by ISIS 315089, which is a perfect match to the Cynomolgous monkey apolipoprotein B sequence to which ISIS 281625 hybridizes. Primary Cynomolgous monkey hepatocytes, cultured as described herein, were treated with 10, 50, 150 or 300 nM of ISIS 315089 or ISIS 281625 for 24 hours. Cells were treated with the control oligonucleotide ISIS 13650 (SEQ ID NO: 806) at 150 and 300 nM or ISIS 113529 (SEQ ID NO: 859) at 300 nM. Untreated cells also served as a control. Cynomolgous monkey apolipoprotein B mRNA levels in primary Cynomolgous monkey hepatocytes was quantitated using real-time PCR with human primers and probe as described by other examples herein. The results, shown in Table 46, are the average of 3 experiments and are expressed as percent inhibition of apolipoprotein B mRNA normalized to untreated control cells.
ISIS 271009 (SEQ ID NO: 319) and ISIS 301027 (SEQ ID NO: 262) were also tested for their effects on apolipoprotein B mRNA and protein expression in Cynomolgous primary hepatoctyes. Cells, cultured as described herein, were treated with 10, 50 and 150 nM of ISIS 271009 or ISIS 301027 for 24 hours. Cells were treated with the control oligonucleotide ISIS 113529 (SEQ ID NO: 859) at 150 nM. Untreated cells also served as a control. Cynomolgous monkey apolipoprotein B mRNA levels in primary Cynomolgous monkey hepatocytes was quantitated using real-time PCR with human primers and probe as described by other examples herein. The results, shown in Table 48, are the average of 2 experiments and are expressed as percent inhibition of apolipoprotein B mRNA normalized to untreated control cells.

[4] = test system: apolipoprotein B protein; assay: Apolipoprotein B protein secreted from primary Cynomolgous monkey hepatocytes, ELISA; settings: primary Cynomolgous hepatocytes
Method: Apolipoprotein B protein secreted from primary Cynomolgous hepatocytes treated with 150 and 300 nM of oligonucleotide was measured by ELISA using an apolipoprotein B protein specific kit (ALerCHEK Inc., Portland, Me.). Each result represents the average of 3 experiments.
Apolipoprotein B protein secreted primary Cynomolgous hepatocytes treated with 50 and 150 nM of ISIS 315089 and ISIS 281625 was measured by ELISA using an apolipoprotein B protein specific kit (ALerCHEK Inc., Portland, Me.). Each result represents the average of 3 experiments.
Apolipoprotein B protein secreted from primary Cynomolgous hepatocytes treated with 50 and 150 nM of ISIS 271009 and ISIS 301027 was measured by ELISA using an apolipoprotein B protein specific kit (ALerCHEK Inc., Portland, Me.). Each result represents the average of 3 experiments.

[5] = test system: human apolipoprotein B mRNA; assay: Inhibition of human apolipoprotein B mRNA levels in HepG2 cells, quantitative real-time PCR; settings: for % INHIB (inhibition of human apolipoprotein B mRNA levels): HepG2 cells treated with 150 nM of compound, averages from two experiments, quantitative real-time PCR; for % inhibition 37 nM / % inhibition 75 nM / % inhibition 150 nM / % inhibition 300 nM: Table 19 dose response, HepG2 cells, normalized to untreated control
Method in brief: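 Apolipoprotein B transcript was quantified by one-step TaqMan RT-PCR, normalized to GAPDH or RiboGreen RNA, and expressed as percent inhibition against an untreated-sample standard curve. HepG2 cells were harvested 16-24 h after oligonucleotide exposure, which was delivered with 3.75 μg/mL Lipofectin over 4-7 h at 80% confluency.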

[6] = test system: human apolipoprotein B mRNA; assay: Inhibition of apolipoprotein B mRNA by dsRNAs in HepG2 cells; settings: 150 nM with 3.75 μg/mL LIPOFECTIN
Method: In accordance with the present invention, a series of nucleic acid duplexes comprising the antisense compounds of the present invention and their complements were designed to target apolipoprotein B and are shown in Table 42. All compounds in Table 42 are oligoribonucleotides 20 nucleotides in length with phosphodiester internucleoside linkages (backbones) throughout the compound. The compounds were prepared with blunt ends. […] These sequences are shown to contain uracil (U) but one of skill in the art will appreciate that uracil (U) is generally replaced by thymine (T) in DNA sequences. “Targer site” indicates the first (5′-most) nucleotide number on the particular target sequence to which the compound binds. A subset of the compounds in Table 42 are the RNA equivalents of DNA antisense oligonucleotides described herein, and, where applicable, this is noted by the ISIS # of the DNA oligonucleotide in the column “RNA equivalent of ISIS #”.
The dsRNA compounds in Table 42 were tested for their effects on human apolipoprotein mRNA in HepG2 cells. HepG2 cells were treated with 100 nM of dsRNA compounds mixed with 5 μg/mL LIPOFECTIN (Invitrogen Corporation, Carlsbad, Calif.) for a period of 16 hours. In the same experiment, HepG2 cells were also treated with 150 nM of subset of the antisense oligonucleotides described herein mixed with 3.75 μg/mL LIPOFECTIN; these compounds are listed in Table 43. Control oligonucleotides included ISIS 18078 ([…], SEQ ID NO: 888). ISIS 18078 is a chimeric oligonucleotide (“gapmer”) 20 nucleotides in length, composed of a central “gap” region consisting of 9 2′-deoxynucleotides, which is flanked on the 5′ and 3′ ends by a five-nucleotide “wing” and a six-nucleotide “wing”, respectively. The wings are composed of 2′-methoxyethyl (2′-MOE)nucleotides. The internucleoside (backbone) linkages are phosphorothioate (P═S) throughout the oligonucleotide. All cytidines are 5-methylcytidines. The duplex of ISIS 263188 ([…], SEQ ID NO: 889) and its complement was also used as a control. ISIS 263188 is an oligoribonucleotide 21 nucleotides in length with the 2 nucleotides on the 3′ end being oligodeoxyribonucleotides (TT) and with phosphodiester internucleoside linkages (backbones) throughout the compound.
Cells were treated for 4 hours, after which human apolipoprotein B mRNA expression was measured as described by examples herein. Results were normalized to untreated control cells, which were not treated with LIPOFECTIN or oligonucleotide.

| Substance | % Change in apolipoprotein(a) mRNA expression following antisense inhibition of apolipoprotein B ([1]; 50 nM) | % Change in apolipoprotein(a) mRNA expression following antisense inhibition of apolipoprotein B ([1]; 150 nM) | % Change in lipoprotein(a) secretion [2] | % Inhibition of apolipoprotein B mRNA ([3]; 150 nM, "+" = expression increased) | % Inhibition of apolipoprotein B mRNA ([3]; 300 nM) | % Reduction of monkey apolipoprotein B protein secretion ([4]; 50 nM (Table 47)) | % Reduction of monkey apolipoprotein B protein secretion ([4]; 150 nM (Table 47)) | % Reduction of monkey apolipoprotein B protein secretion ([4]; 150 nM (Table 49), "+" = secretion increased) | % INHIB (inhibition of human apolipoprotein B mRNA levels) [5] | % inhibition 37 nM [5] | % inhibition 75 nM [5] | % inhibition 150 nM [5] | % inhibition 300 nM [5] | % Inhibition of apolipoprotein B mRNA [6] |
| --- | --- | --- | --- | --- | --- | --- | --- | --- | --- | --- | --- | --- | --- | --- |
| 13650 (TCCCGCCTGTGACATGCATT; listed as DNA, chemistry not given here) [compound 13650] | −68% | −37% | +14% | +50% | 33% | 16% | 13% | +1% |  |  |  |  |  |  |
| 301028 (eG*eG*e[5mC]*eT*e[5mC]*dA*d[5mC]*dT*dG*dT*dA*dT*dG*dG*dT*eT*eT*eT*eA*eT; antisense) [compound 301028] |  |  |  |  |  |  |  |  | 93% | 70% | 79% | 85% | 92% | 85% |
| 301029 (eG*eG*e[5mC]*eT*eG*dG*d[5mC]*dT*d[5mC]*dA*d[5mC]*dT*dG*dT*dA*eT*eG*eG*eT*eT; antisense) [compound 301029] |  |  |  |  |  |  |  |  | 90% | 54% | 67% | 79% | 85% | 77% |
| 301030 (eA*eG*eG*e[5mC]*eT*dG*dG*d[5mC]*dT*d[5mC]*dA*d[5mC]*dT*dG*dT*eA*eT*eG*eG*eT; antisense) [compound 301030] |  |  |  |  |  |  |  |  | 90% | 64% | 75% | 87% | 92% | 70% |
| 301031 (eA*eA*eG*eG*e[5mC]*dT*dG*dG*d[5mC]*dT*d[5mC]*dA*d[5mC]*dT*dG*eT*eA*eT*eG*eG; antisense) [compound 301031] |  |  |  |  |  |  |  |  | 90% | 61% | 82% | 92% | 96% | 73% |
| 301037 (e[5mC]*eA*eG*e[5mC]*eT*dT*dT*dG*dG*dT*dG*d[5mC]*dA*dG*dG*eT*e[5mC]*e[5mC]*eA*eG; antisense) [compound 301037] |  |  |  |  |  |  |  |  | 90% | 73% | 85% | 89% | 96% | 80% |
| 301038 (eG*e[5mC]*e[5mC]*eA*eG*d[5mC]*dT*dT*dT*dG*dG*dT*dG*d[5mC]*dA*eG*eG*eT*e[5mC]*e[5mC]; antisense) [compound 301038] |  |  |  |  |  |  |  |  | 86% |  |  |  |  | 84% |
| 301045 (eA*eG*e[5mC]*eA*eA*dA*dA*dT*dA*dA*d[5mC]*dT*d[5mC]*dA*dG*eA*eT*e[5mC]*e[5mC]*eT; antisense) [compound 301045] |  |  |  |  |  |  |  |  | 90% | 77% | 86% | 94% | 98% | 77% |
